The values that follow are results of earlier work, collected in patent US20250207102A1, “METHODS FOR CO-CULTURING GENOTOXIC BACTERIA AND ORGANOIDS” (priority 2022, published 2025).

In the case of `Cc1cccc(-c2nn(C(=S)Nc3ccccc3)cc2-c2ccnc3ccccc23)n1` [A83-01], the “inhibition of ALK-1,-2,-3,-6 and MAPK activity” value with ALK-1,-2,-3,-6 and MAPK is “only weakly inhibits”. Also, in the data set on Smad2, the “phosphorylation of Smad2” value is “blocks phosphorylation of Smad2”.
